Active and inactive are the calls of the source. The calls are words filed in the database; no cut-off is given here.
Experiments:
Calf thymus DNA [1] = experiment: Binding affinity to calf thymus DNA assessed as red shift in absorption maxima; type: nucleic-acid assay; settings: Bos taurus
Calf thymus DNA [2] = experiment: Binding affinity to calf thymus DNA assessed as red shift in emission maxima; type: nucleic-acid assay; settings: Bos taurus
[3] = Induction of singlet oxygen production assessed as photodegradation of DPBF by measuring quantum yield after irradiation with 356 nanometer light by UV-Visible spectroscopic analysis; type: functional
A549 = experiment: Photocytotoxicity against human A549 cells assessed as reduction in cell viability preincubated for 1 hr followed blue LED light irradiation for 10 mins and measured after 24 hrs by MTT assay; type: functional, cell-based
MCF7 [4] = experiment: Photocytotoxicity against human MCF7 cells assessed as reduction in cell viability preincubated for 1 hr followed blue LED light irradiation for 5 mins and measured after 24 hrs by MTT assay; type: functional, cell-based
MCF7 [5] = experiment: Photocytotoxicity against human MCF7 cells assessed as reduction in cell viability preincubated for 1 hr followed blue LED light irradiation for 10 mins and measured after 24 hrs by MTT assay; type: functional, cell-based
[6] = Dark toxicity in human A549 cells assessed as reduction in cell viability up to 10 uM measured after 24 hrs by MTT assay; type: cell-based; settings: a549, 24 h
[7] = Dark toxicity in human HeLa cells assessed as reduction in cell viability up to 10 uM measured after 24 hrs by MTT assay; type: cell-based
DNA [8] = experiment: Induction of Escherichia coli pBR322 DNA cleavage at 20 uM after 30 mins under dark condition by agarose gel electrophoresis method; type: nucleic-acid assay; settings: 0.5 h
DNA [9] = experiment: Induction of Escherichia coli pBR322 DNA cleavage at 20 uM irradiated with blue LED light after 30 mins in presence of H2O2 scavenger KI by agarose gel electrophoresis method; type: nucleic-acid assay
DNA [10] = experiment: Induction of Escherichia coli pBR322 DNA cleavage at 20 uM irradiated with blue LED light after 30 mins in presence of hydroxyl radical scavenger mannitol by agarose gel electrophoresis method; type: nucleic-acid assay
HeLa [11] = experiment: Induction of ROS generation in human HeLa cells preincubated for 1 hr followed by blue LED light irradiation for 15 mins by DHE staining based HCS analysis; type: functional, cell-based
HeLa [12] = experiment: Photocytotoxicity against human HeLa cells assessed as reduction in cell viability at 2 uM preincubated for 1 hr followed blue LED light irradiation for 5 mins and measured after 24 hrs in presence of singlet oxygen scavenger histidine by MTT assay; type: functional, cell-based
[13] = Drug uptake in human HeLa cell cytoplasm at 10 uM after 1 hr by mitotracker red staining based confocal laser scanning microscopic method; type: ADME, subcellular
[14] = Drug uptake in human HeLa cell nucleus at 10 uM after 1 hr by mitotracker red staining based confocal laser scanning microscopic method; type: ADME, subcellular
[15] = Drug uptake in human HeLa cell mitochondria at 10 uM after 1 hr by mitotracker red staining based confocal laser scanning microscopic method; type: ADME
HeLa [16] = experiment: Photocytotoxicity against human HeLa cells assessed as induction of mitochondrial damage by measuring mitochondrial swelling at 10 uM preincubated for 1 hr followed by 488 nanometer laser light irradiation up to 6 mins by mitotracker red staining based confocal laser scanning microscopic method; type: functional, cell-based
HeLa [17] = experiment: Photocytotoxicity against human HeLa cells assessed as induction of mitochondrial membrane potential depolarization at 10 uM preincubated for 1 hr followed by blue LED light irradiation for 5 mins by TMRE staining based confocal microscopic method; type: functional, cell-based
MCF7 [18] = experiment: Photocytotoxicity against human MCF7 cells assessed as induction of mitochondrial membrane potential depolarization at 10 uM preincubated for 1 hr followed by blue LED light irradiation for 5 mins by TMRE staining based confocal microscopic method; type: functional, cell-based
HeLa [19] = experiment: Photocytotoxicity against human HeLa cells assessed as cell membrane blebbing at 10 uM preincubated for 1 hr followed by blue LED light irradiation for 5 mins by differential interference contrast imaging analysis; type: functional, cell-based
[20] = Drug uptake in human HeLa cell mitochondria at 10 uM incubated for 1 to 2 hrs under 488 nanometer laser light irradiation by confocal microscopic method; type: ADME
[21] = Drug uptake in mouse NIH/3T3 cell mitochondria at 10 uM incubated for 1 to 2 hrs under 488 nanometer laser light irradiation by confocal microscopic method; type: ADME; settings: nih3t3, 10 µM
HeLa [22] = experiment: Photocytotoxicity against human HeLa cells assessed as cytoplasmic shrinkage at 10 uM preincubated for 1 hr followed by 488 nanometer laser light irradiation and measured after 8 to 10 mins by confocal microscopic method; type: functional, cell-based
MCF7 [23] = experiment: Photocytotoxicity against human MCF7 cells assessed as cytoplasmic shrinkage at 10 uM preincubated for 1 hr followed by 488 nanometer laser light irradiation and measured after 8 to 10 mins by confocal microscopic method; type: functional, cell-based
NIH3T3 = experiment: Cytotoxicity against mouse NIH/3T3 cells assessed as cytoplasmic shrinkage at 10 uM preincubated for 1 hr followed by 488 nanometer laser light irradiation and measured after 16 mins by confocal microscopic method; type: cell-based; settings: nih3t3, 16 min
DNA [24] = experiment: Binding affinity to Escherichia coli pBR322 DNA assessed as increase in test compound fluorescence irradiated with blue LED light for 5 to 20 mins; type: nucleic-acid assay
HeLa [25] = experiment: Photocytotoxicity against human HeLa cells assessed as increase in cleaved caspase-9 protein expression preincubated for 1 hr followed by blue LED light irradiation for 10 mins and measured after 18 hrs by Western blot analysis; type: functional, cell-based
HeLa [26] = experiment: Photocytotoxicity against human HeLa cells assessed as increase in cleaved PARP protein expression preincubated for 1 hr followed by blue LED light irradiation for 10 mins and measured after 18 hrs by Western blot analysis; type: functional, cell-based
HeLa [27] = experiment: Photocytotoxicity against human HeLa cells assessed as plasma membrane blebbing at 0.5 uM preincubated for 1 hr followed by blue LED light irradiation for 5 mins and measured after 13 hrs by propidium iodide staining based fluorescence microscopic method; type: functional, cell-based
HeLa [28] = experiment: Photocytotoxicity against human HeLa cells assessed as chromatin condensation up to 10 uM preincubated for 1 hr followed by blue LED light irradiation for 5 mins and measured after 13 hrs by Hoechst 33258 staining based fluorescence microscopic method; type: functional, cell-based
HeLa [29] = experiment: Photocytotoxicity against human HeLa cells assessed as plasma membrane blebbing at 5 uM preincubated for 1 hr followed by blue LED light irradiation for 10 to 30 mins and measured after 2.5 hrs by holotomographic method; type: functional, cell-based
HeLa [30] = experiment: Photocytotoxicity against human HeLa cells assessed as cell shrinkage at 5 uM preincubated for 1 hr followed by blue LED light irradiation for 10 to 30 mins and measured after 2.5 hrs by holotomographic method; type: functional, cell-based
HeLa [31] = experiment: Photocytotoxicity against human HeLa cells assessed as cell shrinkage at 20 uM preincubated for 1 hr followed by blue LED light irradiation for 10 mins and measured after 2.5 hrs by holotomographic method; type: functional, cell-based
HeLa [32] = experiment: Photocytotoxicity against human HeLa cells assessed as cell rounding at 20 uM preincubated for 1 hr followed by blue LED light irradiation for 10 mins and measured after 2.5 hrs by holotomographic method; type: functional, cell-based
HeLa [33] = experiment: Photocytotoxicity against human HeLa cells assessed as membrane protrusion at 5 uM preincubated for 1 hr followed by blue LED light irradiation for 10 to 30 mins and measured after 2.5 hrs by holotomographic method; type: functional, cell-based
HeLa [34] = experiment: Photocytotoxicity against human HeLa cells assessed as membrane protrusion at 20 uM preincubated for 1 hr followed by blue LED light irradiation for 10 mins and measured after 2.5 hrs by holotomographic method; type: functional, cell-based

Cc1cccn2c1cc1c3ccccc3nc(-c3ccco3)c12
Activity (Calf thymus DNA [1]): 57 nm
Activity (Calf thymus DNA [2]): 36 nm
Activity [3]: 0.33
Activity (A549): Dose-dependent effect
IC50 (A549; A549, light or radiation study): 2.37 µM
Activity (MCF7 [4]): Dose-dependent effect
IC50 (MCF7 [4]; MCF7, light or radiation study): 2.39 µM
Activity (MCF7 [5]): Dose-dependent effect
IC50 (MCF7 [5]; MCF7, light or radiation study): 1.67 µM
Activity [6]: Non-Toxic
Activity [7]: Non-Toxic
Activity (DNA [8]): Non-Toxic
Activity (DNA [9]): inactive
Activity (DNA [10]): Active
Activity (HeLa [11]): Dose-dependent effect
Activity (HeLa [12]): inactive
Drug uptake [13]: Active
Drug uptake [14]: Not Active
Drug uptake [15]: Active
Activity (HeLa [16]): Active
Activity (HeLa [17]): Active
Activity (MCF7 [18]): Active
Activity (HeLa [19]): Active
Drug uptake [20]: Active
Drug uptake [21]: Active
Activity (HeLa [22]): Active
Activity (MCF7 [23]): Active
Activity (NIH3T3): Non-Toxic
Activity (DNA [24]): Active
Activity (HeLa [25]): Dose-dependent effect
Activity (HeLa [26]): Dose-dependent effect
Activity (HeLa [27]): Active
Activity (HeLa [28]): Active
Activity (HeLa [29]): Active
Activity (HeLa [30]): Active
Activity (HeLa [31]): Active
Activity (HeLa [32]): Active
Activity (HeLa [33]): Active
Activity (HeLa [34]): Active

— ChEMBL document CHEMBL4145551, “Mitochondria-targeting indolizino[3,2-c]quinolines as novel class of photosensitizers for photodynamic anticancer activity” (Eur J Med Chem, 2018)
